Assays:
[1] = test system: centromere of the Y chromosome; assay: Y chromosome ablation efficiency by FISH analysis of tRFP-positive blood cells; type: cell-based; conditions: tRFP-positive blood cells from reconstituted mice
Description: Plasmids. Single guide RNAs (sgRNA) targeting the centromere of the Y chromosome (gRNA1, gRNA2) were from a previous report (Adikusuma et al., 2017), and the control gRNA is non-targeting. sgRNA sequences are listed in Table 4. Single stranded sgRNA sequences were annealed and cloned into pLKO.sgRNA.EFS.tRFP following restriction digestion with Esp3I, and successful cloning was confirmed by Sanger sequencing with U6 primer (Table 4). Plasmids were from Addgene (pLKO5.0.sgRNA.EFS.tRFP, plasmid #57823; psPAX2; plasmid #12260; and pMD2.G, plasmid #12259).
Ex vivo genome editing of HSPC. sgRNAs were delivered lentivirally to bone marrow lineage-negative cells obtained from ROSA26Cas9 knock-in mice as described previously (Sano et al., 2019).
Fluorescence in situ hybridization (FISH). […] 200 interphase nuclei were analyzed by two technologists using an Olympus fluorescence microscope (model BX-41).
We constructed a mouse model of hematopoietic mLOY by employing CRISPR/Cas9 gene editing to target repeat DNA sequences that are specific to the centromere of the Y chromosome. […] Two LOY-gRNAs (LOY-gRNA1 and 2) targeting different repeat sequences within the centromere were evaluated for the efficiency of Y chromosome ablation by fluorescent in situ hybridization (FISH) analysis of X and Y chromosome in tRFP-positive blood cells collected from mice reconstituted with bone marrow cells. […]

[2] = Effect of senolytic ABT-263 on lifespan and kidney function in aging hematopoietic Uty-KO mice; type: in vivo
Description: FIGS. 28A-28C. The effect of the senolytic ABT-263 on lifespan and kidney function in aging hematopoietic Uty-KO mice. FIG. 28A. Exemplary model of ABT-263 mice. FIGS. 28B and 28C.
FIGS. 28A-28C show the effect of the senolytic ABT-263 on lifespan and kidney function in aging hematopoietic Uty-KO mice, using an exemplary model of ABT-263 mice.

| Molecule | Y chromosome ablation efficiency [1] | progression of renal dysfunction [2] | survival [2] |
| --- | --- | --- | --- |
| LOY-gRNA1: guide RNA targeting a repeat sequence in the centromere of the Y chromosome, SEQ ID NOs: 1-2 (guide 1 CACCGGAGUUAAUAUAAAAAACA; guide 2 AAACUGUUUUUUAUAUUAACUCC; listed as RNA, chemistry not fully specified) | approximately 95% |  |  |
| CC1(C)CCC(c2ccc(Cl)cc2)=C(CN2CCN(c3ccc(C(=O)NS(=O)(=O)c4ccc(N[C@H](CCN5CCOCC5)CSc5ccccc5)c(S(=O)(=O)C(F)(F)F)c4)cc3)CC2)C1 [ABT-263] |  | suppressed the progression of renal dysfunction | promoted survival |
